According to ChEMBL document CHEMBL5604063, “ASAP - DENV-2 NS2B-NS3 protease fluorescence dose response” (2024):
Values joined by “and” are separate entries in the source; they are usually repeats but may differ in a detail not shown here. Equal values may be shown once.

Legend:
Genome polyprotein [1] = target: T1, Genome polyprotein (dengue virus type 2, UniProt P29990); assay type: functional, Thailand/16681/1984
Genome polyprotein [2] = target: T1, Genome polyprotein; assay type: functional, Thailand/16681/1984; remark: listed apart in the source

T1 sequence (P29990 1346-1475 limits assumed): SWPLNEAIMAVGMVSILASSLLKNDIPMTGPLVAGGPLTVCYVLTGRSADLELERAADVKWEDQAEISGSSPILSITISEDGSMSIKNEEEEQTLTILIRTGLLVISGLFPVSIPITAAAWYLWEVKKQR
T1 sequence (P29990 1476-2093 limits assumed): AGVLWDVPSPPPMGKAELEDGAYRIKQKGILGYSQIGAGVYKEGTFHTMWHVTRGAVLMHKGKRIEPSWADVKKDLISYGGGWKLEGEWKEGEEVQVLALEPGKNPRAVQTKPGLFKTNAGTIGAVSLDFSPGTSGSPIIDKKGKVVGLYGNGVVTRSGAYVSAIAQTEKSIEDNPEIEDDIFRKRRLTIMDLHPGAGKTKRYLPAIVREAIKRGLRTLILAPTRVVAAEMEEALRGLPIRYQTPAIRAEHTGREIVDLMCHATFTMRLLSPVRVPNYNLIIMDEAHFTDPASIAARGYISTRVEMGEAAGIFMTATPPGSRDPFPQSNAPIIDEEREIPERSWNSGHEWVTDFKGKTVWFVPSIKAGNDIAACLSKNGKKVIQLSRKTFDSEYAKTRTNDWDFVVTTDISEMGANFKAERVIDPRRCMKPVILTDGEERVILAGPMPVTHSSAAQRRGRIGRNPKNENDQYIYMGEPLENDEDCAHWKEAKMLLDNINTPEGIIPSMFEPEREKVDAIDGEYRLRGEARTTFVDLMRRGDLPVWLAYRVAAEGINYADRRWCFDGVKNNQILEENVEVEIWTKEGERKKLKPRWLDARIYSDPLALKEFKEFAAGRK

| Structure (SMILES) | IC50 (Genome polyprotein [1]) | IC50 (Genome polyprotein [2]) |
| --- | --- | --- |
| Cc1c(C(=O)Nc2cccc(CS(C)(=O)=O)c2)cc(C2CC2)n1C | > 99.5 µM | > 100 µM |
| O=C(NCC(F)F)[C@H](Nc1ncc2c(n1)CNC2)c1cc(Cl)cc(C2CC2)c1 | > 99.5 µM | > 100 µM |
| O=C1Cc2c(cccc2C(=O)Nc2ccnn2Cc2ccncc2)N1 | > 99.5 µM | > 100 µM |
| NC(=O)COc1ccc(Br)cc1[C@H](Nc1ccc2c(c1)CNC2)C(=O)NCC(F)F | > 99.5 µM | > 100 µM |
| Cn1nc(CNc2cc(-c3cccnc3)ccn2)cc1C1CC1 | > 99.5 µM | > 100 µM |
| CC(=O)N(c1ccc2c(c1)CNC2)[C@]1(c2cc(Cl)cc(C3CC3)c2)CN(C)C1=O | > 99.5 µM | > 100 µM |
| CO[C@H]1Cc2ccc(NC(=O)c3cc(C4CC4)n(C)c3C)cc2C1 | > 99.5 µM | > 100 µM |
| O=C1Cc2c(cccc2C(=O)Nc2nnc3n2CCCS3)N1 | > 99.5 µM | > 100 µM |
| O=C(O)COc1ccc(Cl)cc1[C@H](Nc1ccc2c(c1)CNC2)C(=O)NCC(F)F | > 99.5 µM | > 100 µM |
| NC(=O)c1cn(C2CCCC2)nc1NC(=O)c1cccc2c1CC(=O)N2 | > 99.5 µM | > 100 µM |
| O=C1Cc2c(cccc2C(=O)Nc2ccc3[nH]nnc3c2)N1 | > 99.5 µM | > 100 µM |
| C=C(C)c1ccc(Cl)cc1[C@H](Nc1ccc2c(c1)CNC2)C(=O)NCC(F)F | > 99.5 µM | > 100 µM |
| Cc1c(C(=O)Nc2ccc3c(c2)C[C@H](C(N)=O)O3)cc(C2CC2)n1C | > 99.5 µM | > 100 µM |
| N#CCOc1ccc(Br)cc1[C@H](Nc1ccc2c(c1)CNC2)C(=O)NCC(F)F | > 99.5 µM | > 100 µM |
| Cc1c(C(=O)Nc2ccc3c(c2)CCC(=O)N3CC2CCC2)cc(C2CC2)n1C | > 99.5 µM | > 100 µM |
| Clc1cc(CNc2ncc3c(n2)CNC3)c2cn[nH]c2c1 | > 99.5 µM | > 100 µM |
| Clc1cc(CNc2ccc3c(n2)CNC3)c2cn[nH]c2c1 | > 99.5 µM | > 100 µM |
| Cc1c(C(=O)Nc2cccc(-c3nc(C4CC4)no3)c2)cc(C2CC2)n1C | > 99.5 µM | > 100 µM |
| CC(=O)N1CC[C@]2(C1)C(=O)Nc1cccc(C(=O)Nc3ccc4c(c3)CNC4)c12 | > 99.5 µM | > 100 µM |
| N#Cc1cccc(-c2nc3c(C(=O)Nc4cccc(F)c4)cc(Cl)cc3[nH]2)c1 | > 99.5 µM | > 100 µM |
| CC(C)NC(=O)C[C@H]1NCc2cc(NC(=O)c3cc(Cl)cc4[nH]ncc34)ccc21 | > 99.5 µM | > 100 µM |
| O=C(NCC(F)F)[C@H](Nc1cc2c(cc1Br)CNC2)c1cc(Cl)cc(C2CC2)c1 | > 99.5 µM | 91.9 µM and 70.7 µM |
| CNC(=O)c1cc(Br)cc([C@H](Nc2ccc3c(c2)CNC3)C(=O)NCC(F)F)c1 | > 99.5 µM | > 100 µM |

| Structure (SMILES) | IC50 (Genome polyprotein [1]) | IC50 (Genome polyprotein [2]) |
| --- | --- | --- |
| O=C(Nc1ccc2c(c1)CN[C@H]2CC1CC1)c1cc(F)cc2[nH]ncc12 | 37.9 µM | 31.3 µM and 22.1 µM |
| CC1(C)NCc2cc(NC(=O)c3cc(F)cc4[nH]ncc34)ccc21 | > 99.5 µM | > 100 µM |
| CC(C)(C)OC(=O)N1Cc2ccc(N[C@H](C(=O)O)c3cc(Cl)cc4[nH]ncc34)cc2C1 | 78.2 µM | 57.6 µM and 41.9 µM |
| Cc1c(C(=O)Nc2cccc(-c3ccoc3)c2)cc(C2CC2)n1C | > 99.5 µM | > 100 µM |
| CN(C)C(=O)C[C@H]1NCc2cc(NC(=O)c3cc(Cl)cc4[nH]ncc34)ccc21 | > 99.5 µM | > 100 µM |
| CS(=O)(=O)NC(=O)C[C@H]1NCc2cc(NC(=O)c3cc(Cl)cc4[nH]ncc34)ccc21 | > 296 µM | > 300 µM |
| CC(C)(C)NC(=O)C[C@H]1NCc2cc(NC(=O)c3cc(Cl)cc4[nH]ncc34)ccc21 | > 99.5 µM | > 100 µM |
| C[C@H]1NCc2ccc(NC(=O)c3cc(Cl)cc4[nH]ncc34)cc21 | > 99.5 µM | > 100 µM |
| CNC(=O)C[C@H]1NCc2cc(NC(=O)c3cc(Cl)cc4[nH]ncc34)ccc21 | > 99.5 µM | > 100 µM |
| CC(=O)N[C@]1(C)C(=O)Nc2cc(F)cc(C(=O)Nc3ccc4c(c3)CNC4)c21 | > 99.5 µM | > 100 µM |
| O=C1Cc2c(cccc2C(=O)Nc2cc(Br)c3ncnn3c2)N1 | > 99.5 µM | > 100 µM |
| O=C(Nc1ccc2c(c1)CNC2)c1cc(Cl)cc2[nH]c(-c3cccc(F)c3)nc12 | 2.64 µM | 17.4 µM and 12.8 µM |
| C[C@]1(S(C)(=O)=O)C(=O)Nc2cc(F)cc(C(=O)Nc3ccc4c(c3)CNC4)c21 | > 99.5 µM | > 100 µM |
| NCCCn1c(C2CC2)cc(C(=O)Nc2cc([C@H]3CCOC3)ccn2)c1C1CC1 | > 99.5 µM | > 100 µM |
| Cc1c(C(=O)Nc2ccc3c(c2F)CCN(C)C3=O)cc(C2CC2)n1C | > 99.5 µM | > 100 µM |
| Cc1c(C(=O)Nc2cccc(Cn3cccn3)c2)cc(C2CC2)n1C | > 99.5 µM | > 100 µM |
| O=C1Cc2c(cccc2C(=O)Nc2ccc(O[C@H]3CCOC3)nc2)N1 | > 99.5 µM | > 100 µM |
| O=C1Cc2c(cccc2C(=O)Nc2cccc(-c3cn[nH]c3)c2)N1 | > 99.5 µM | > 100 µM |
| O=C(Nc1ccc2c(c1)CN[C@H]2C1CC1)c1cc(F)cc2[nH]ncc12 | 13.5 µM | 15.7 µM and 16.1 µM |
| Cc1c(C(=O)Nc2cc(C3CCOCC3)ccn2)cc(C2CC2)n1C | > 99.5 µM | > 100 µM |
| N#Cc1cccc(-c2nc3c(C(=O)Nc4ccc(F)cc4)cc(Cl)cc3[nH]2)c1 | > 99.5 µM | > 100 µM |
| Cc1c(C(=O)Nc2ccc3c(c2)C(=O)NC3)cc(C2CC2)n1C | > 99.5 µM | > 100 µM |
| O=C(NCC(F)F)[C@H](Nc1ccc2c(c1)CNC2)c1cc(Br)cc2cn[nH]c12 | > 99.5 µM | > 100 µM |

| Structure (SMILES) | IC50 (Genome polyprotein [1]) | IC50 (Genome polyprotein [2]) |
| --- | --- | --- |
| COC(=O)[C@H]1NCc2cc(NC(=O)c3cc(F)cc4[nH]ncc34)ccc21 | > 99.5 µM | > 100 µM |
| N#Cc1cccc(-c2nc3c(C(=O)Nc4ccccn4)cc(Cl)cc3[nH]2)c1 | 28.9 µM | > 100 µM |
| Nc1ccncc1-c1cc(F)cc(C(=O)Nc2ccc3c(c2)CNC3)c1 | > 99.5 µM | > 100 µM |
| C[C@H]1C(=O)Nc2ccc(C(=O)Nc3ccc4c(c3)CNC4)cc21 | 34.5 µM | 25.1 µM and 17.2 µM |
| COCCN(C)C(=O)[C@H](Nc1ccc2c(c1)CNC2)c1cc(Cl)cc(C2CC2)c1 | > 99.5 µM | > 100 µM |
| O=C1C[C@H](c2cccc(-c3cc(F)cc(C(=O)Nc4ccc5c(c4)CNC5)c3)c2)N1 | > 99.5 µM | > 100 µM |
| CC(=O)N(c1ccc2c(c1)CNC2)[C@]1(c2cc(Cl)cc(C3CC3)c2)CCCN(C)C1=O | > 99.5 µM | > 100 µM |
| O=C1Cc2c(cccc2C(=O)Nc2nc([C@H]3CCCOC3)cs2)N1 | > 99.5 µM | > 100 µM |
| Cc1c(C(=O)Nc2cccc(CN3CCCC3=O)c2)cc(C2CC2)n1C | > 99.5 µM | > 100 µM |
| CN(C)C(=O)C[C@H]1NCc2cc(NC(=O)c3cc(F)cc4[nH]ncc34)ccc21 | > 99.5 µM | 54.5 µM and 71.7 µM |
| NCCc1cccc(NC(=O)c2cccc3c2CC(=O)N3)c1 | > 99.5 µM | > 100 µM |
| C[C@H]1NCc2cc(NC(=O)c3cc(F)cc4[nH]ncc34)ccc21 | 69.8 µM | 62.2 µM and 68.2 µM |
| O=C(Nc1ccc2c(c1)CNC2)c1cc(Cl)cc2[nH]c(-c3ccccc3)nc12 | 3.31 µM | 51.8 µM and 21.4 µM |
| O=C1Cc2c(cccc2C(=O)Nc2ccc(N3CCOC3=O)nc2)N1 | > 99.5 µM | > 100 µM |
| O=C(NCC(F)F)[C@H](Nc1ccc2c(c1)CNC2)c1cc(Br)ccc1Oc1ccc(Cl)c(Cl)c1 | > 99.5 µM | > 100 µM |
| Cc1cc(NC(=O)c2cc(C3CC3)n(C)c2C)ccc1OC1CCOCC1 | > 99.5 µM | > 100 µM |
| O=C(Nc1ccc2c(c1)CN[C@H]2C(=O)O)c1cc(F)cc2[nH]ncc12 | 71.1 µM | 79.4 µM and > 100 µM |
| Cc1c(C(=O)Nc2ccc3c(c2)CN(C)C3=O)cc(C2CC2)n1C | > 99.5 µM | > 100 µM |
| Cn1nc(CNc2cc([C@H]3CCOC3)ccn2)cc1C1CC1 | > 99.5 µM | > 100 µM |
| O=C([C@H](Nc1ccc2c(c1)CNC2)c1cc(Cl)cc(C2CC2)c1)N1CCOCC1 | > 99.5 µM | > 100 µM |
| C[C@H](NC(=O)c1cccc2c1CC(=O)N2)c1nnc2n1CCCC2 | > 99.5 µM | > 100 µM |
| CC(C)n1nncc1-c1cc(F)cc(C(=O)Nc2ccc3c(c2)CNC3)c1 | 89 µM | > 100 µM |
